“Also recorded” adds a separate entry of the source.
Legend:
naïve CD4+ T cells [1] = test: In vitro Foxp3 induction assay: naïve CD4+ T cells co-cultured with DC, CD3 antibody, TGF-β, IL-2; format: cell-based, mouse; conditions: purified SCFA
Protocol: For in vitro experiments, CD4+ T cells and CD11c+ dendritic cells were enriched using mouse CD4 (L3T4, Invitrogen) and mouse CD11c (N418, BioLegend) antibodies, respectively, that were biotinylated for use with streptavidin-Dynabeads (Invitrogen). Enriched cells were then sorted on a FACSAria II cell sorter (BD Biosciences) for in vitro assays. Intracellular staining for IL-17, IFN-γ, IL-4, IL-13 and Foxp3 was performed using the Foxp3 staining kit (eBiosciences). Cytokine staining was performed after re-stimulation with CD3 antibody and CD28 antibody (5 μg ml-1 each) in the presence of Golgi-plug (BD Biosciences) for 5 hours. DC were expanded in vivo by subcutaneous injection of B16 melanoma cells secreting FLT3-ligand into the left hind flank of mice as indicated. Once tumors were visible, spleens from injected animals were dissociated in RPMI 1640 medium containing 1.67 U mL-1 liberase TL (Roche) and 50 μg mL-1 DNAse I (Roche) for 20 min at 37° C. with shaking EDTA was then added at a final concentration of 5 mM to stop digestion and the resulting homogenate was processed for CD11c+ cell isolation using the MACS mouse CD11c (N418) purification kit (Miltenyi Biotec). In vitro Foxp3 induction assays were performed by co-culturing DC with 5.5×10^4 CD4+CD44loCD62LhiCD25-naïve T cells in the presence of 1 μg ml-1 of CD3 antibody, 1 ng mL-1 TGF-β, and 100 U ml-1 IL-2, in 96-well flat-bottom plates for 4 d. For Foxp3 induction in the presence of butyrate- or TSA-pretreated DC, TGF-β was used at 0.1 ng mL-1 final concentration. In vitro induction assays in the absence of DC were performed by incubating 5.5×10^4 naïve CD4+ T cells with 1 ng mL-1 TGF-β, 100 U ml-1 IL-2, and a 1:1 cell-to-bead ratio of CD3/CD28 T activator Dynabeads (Invitrogen). […] Proliferation of T cells was assessed by [3H]-thymidine incorporation during the final 8 h of culture.

Flt3L-elicited DC = test: Foxp3 induction by DC pre-treated with SCFA or TSA for 6 h, washed, co-cultured with naïve CD4+ T cells; format: cell-based, mouse; conditions: DC pre-treated 6 h, then agent removed
Protocol: DC were expanded in vivo by subcutaneous injection of B16 melanoma cells secreting FLT3-ligand into the left hind flank of mice as indicated. Once tumors were visible, spleens from injected animals were dissociated in RPMI 1640 medium containing 1.67 U mL-1 liberase TL (Roche) and 50 μg mL-1 DNAse I (Roche) for 20 min at 37° C. with shaking EDTA was then added at a final concentration of 5 mM to stop digestion and the resulting homogenate was processed for CD11c+ cell isolation using the MACS mouse CD11c (N418) purification kit (Miltenyi Biotec).
(§1) In vitro Foxp3 induction assays were performed by co-culturing DC with 5.5×10^4 CD4+CD44loCD62LhiCD25-naïve T cells in the presence of 1 μg ml-1 of CD3 antibody, 1 ng mL-1 TGF-β, and 100 U ml-1 IL-2, in 96-well flat-bottom plates for 4 d. For Foxp3 induction in the presence of butyrate- or TSA-pretreated DC, TGF-β was used at 0.1 ng mL-1 final concentration. In vitro induction assays in the absence of DC were performed by incubating 5.5×10^4 naïve CD4+ T cells with 1 ng mL-1 TGF-β, 100 U ml-1 IL-2, and a 1:1 cell-to-bead ratio of CD3/CD28 T activator Dynabeads (Invitrogen). For in vitro suppression assays, 4×10^4 naïve CD4+ T cells were FACS-sorted from B6 mice and cultured with graded numbers of CD4+Foxp3+ Treg cells FACS-sorted from Foxp3GFP mice treated with antibiotics and with or without butyrate, in the presence of […] irradiated T cell-depleted splenocytes and 1 μg ml-1 CD3 antibody in a 96-well round-bottom plate for 80 h. Proliferation of T cells was assessed by [3H]-thymidine incorporation during the final 8 h of culture.

Foxp3+ Treg cells = test: SCFA in drinking water to AVNM-treated mice, flow cytometric analysis of Foxp3+ Treg cell subsets; format: in vivo; conditions: for colonic Treg cells (accumulation of Treg cells in the colon): SCFA in drinking water; for Treg cell subsets in the spleen: drinking water, AVNM-treated CNS1-sufficient mice
Text: Fox[…] (CNS1 knockout), Foxp3GFP, Foxp3Thy1.1 and Gpr109a-/- mice were used in the experiments as previously described (Zheng. Y. et al. Nature, 2010, 463, 808-12; Fontenot, J. D. et al. Immunity, 2005, 22, 329-41; Kim, J. M., et al. Nat Immunol, 2007, 8, 191-7). Male C57BL/6 (B6) mice were purchased from the Jackson Laboratory and groups of 5 co-housed mice were randomly assigned to treatment vs. control groups after confirmation that age and weight were in accordance between groups. Male mice were used for all experiments. All strains were maintained in the Sloan-Kettering Institute animal facility in accordance with institutional guidelines. Mice were sacrificed by CO2 asphyxiation then blindly processed for tissue harvest thereafter. For antibiotic treatment, mice at 5-6 weeks of age were treated with 1 g L-1 metronidazole (Sigma-Aldrich), 0.5 g L-1 vancomycin (Hospira), 1 g L-1 ampicillin (Sigma-Aldrich) and 1 g L-1 kanamycin (Fisher Scientific) dissolved in drinking water. […] Butyrate was administered to mice after prior treatment with antibiotics for at least 1 week. For in vitro experiments, CD4+ T cells and CD11c+ dendritic cells were enriched using mouse CD4 (L3T4, Invitrogen) and mouse CD11c (N418, BioLegend) antibodies, respectively, that were biotinylated for use with streptavidin-Dynabeads (Invitrogen). Enriched cells were then sorted on a FACSAria II cell sorter (BD Biosciences) for in vitro assays. Intracellular staining for IL-17, IFN-γ, IL-4, IL-13 and Foxp3 was performed using the Foxp3 staining kit (eBiosciences). Cytokine staining was performed after re-stimulation with CD3 antibody and CD28 antibody (5 μg ml-1 each) in the presence of Golgi-plug (BD Biosciences) for 5 hours.

GPR43 = target: T1, GPR43 (Mus musculus, UniProt Q8VCK6); conditions: Smith et al. Science 2013; cited from earlier work
T1 sequence (Q8VCK6 1-330): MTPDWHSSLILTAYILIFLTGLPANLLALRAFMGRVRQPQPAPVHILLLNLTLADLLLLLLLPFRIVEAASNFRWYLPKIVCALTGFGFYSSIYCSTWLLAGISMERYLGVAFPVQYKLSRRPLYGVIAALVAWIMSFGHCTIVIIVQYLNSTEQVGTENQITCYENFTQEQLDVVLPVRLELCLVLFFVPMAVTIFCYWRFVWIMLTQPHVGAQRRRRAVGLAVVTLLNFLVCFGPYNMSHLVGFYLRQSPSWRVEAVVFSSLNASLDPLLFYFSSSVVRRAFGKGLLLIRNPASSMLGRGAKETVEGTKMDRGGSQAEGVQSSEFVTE

naïve CD4+ T cells [2] = test: In vitro Foxp3 induction in the absence of DC (CD3/CD28 antibody-coated beads, TGF-β); format: cell-based, mouse; conditions: purified naive CD4+ T cells, CD3 and CD28 antibody-coated beads
Protocol: as §1

[3] = LC-MS analysis of butyrate in serum; format: in vivo; conditions: AVNM-treated mice given butyrate in drinking water vs unperturbed SPF mice
Text: Foxp3ΔCNS1 (CNS1 knockout), Foxp3GFP, Foxp3Thy1.1 and Gpr109a−/− mice were used in the experiments as previously described (Zheng. Y. et al. Nature, 2010, 463, 808-12; Fontenot, J. D. et al. Immunity, 2005, 22, 329-41; Kim, J. M., et al. Nat Immunol, 2007, 8, 191-7). Male C57BL/6 (B6) mice were purchased from the Jackson Laboratory and groups of 5 co-housed mice were randomly assigned to treatment vs. control groups after confirmation that age and weight were in accordance between groups. Male mice were used for all experiments. All strains were maintained in the Sloan-Kettering Institute animal facility in accordance with institutional guidelines. Mice were sacrificed by CO2 asphyxiation then blindly processed for tissue harvest thereafter. For antibiotic treatment, mice at 5-6 weeks of age were treated with 1 g L-1 metronidazole (Sigma-Aldrich), 0.5 g L-1 vancomycin (Hospira), 1 g L-1 ampicillin (Sigma-Aldrich) and 1 g L-1 kanamycin (Fisher Scientific) dissolved in drinking water. For butyrate, acetate and propionate administration, each SCFA was added to drinking water containing antibiotics (as described above) at a final concentration of 36 mM and pH-adjusted, if needed, to match that of antibiotic-only water. Butyrate was administered to mice after prior treatment with antibiotics for at least 1 week. […]

[4] = Butyrate levels in fecal pellets after butyrate in drinking water; format: in vivo; conditions: AVNM-treated mice given butyrate via drinking water
Protocol: Stool samples were collected directly into sterile tubes from live mice and snap-frozen before preparation of material for SCFA quantification by HPLC or LC-MS (see corresponding section for further sample processing).
HPLC analysis was performed for analysis of derivatized stool extracts as previously described (Torii, T. et al. Ann. Clin. Biochem, 2010, 47, 447-452). Briefly, flash-frozen stool samples were extracted with 70% ethanol and brought to a final concentration of 0.1 μg μL-1. Debris was removed by centrifugation and 300 μL of supernatant was transferred to a new tube and combined with 50 μL of internal standard (2-ethylbutyric acid, 200 mM in 50% aqueous methanol), 300 μL of dehydrated pyridine 3% v/v (Wako) in ethanol, 300 μL of 250 mM N-(3-dimethlaminopropyl)-N′-ethylcarbodiimide hydrochloride (Sigma-Aldrich) in ethanol, and 300 μL of 20 mM 2-nitrophenylhydrazine hydrochloride (Tokyo Chemical) in ethanol. Samples were incubated at 60° C. for 20 min and 200 μL of potassium hydroxide 15% w/v dissolved 80/20 in methanol was added to stop the derivatization reaction. […] Derivatized SCFA were resuspended in 100 μL of mobile phase (below) and 20 μL was chromatographed on a Shimadzu HPLC system equipped with a Vydac 2.1×30 mm 300 A C18 column run at 200 μL min-1 in methanol/acetonitrile/TFA (30%/16%/0.1% v/v) and monitored for absorbance at 400 nm.

[5] = test system: Foxp3 promoter and CNS1 enhancer; test: H3K27Ac ChIP-qPCR at the Foxp3 locus; format: cell-based, mouse; conditions: 3 days, CD3/CD28 beads and TGF-β
Protocol: H3K27Ac ChIP-qPCR was performed as previously described (Samstein, R. M. et al. Cell, 2012, 151, 153-66). Briefly, fixed cells were lysed and mono- and poly-nucleosomes were obtained by partial digestion with micrococcal nuclease (12,000 U mL-1) in 1 min at 37° C. EDTA was added to a final concentration of 50 mM to stop the reaction, and digested nuclei were resuspended in nuclear lysis buffer with 1% SDS. After sonication, 1 ug H3K27Ac-specific antibody (Abcam, ab4729) was used to precipitate H3K27Ac-bound chromatin. Washing and de-crosslinking was performed as described (Samstein, R. M. et al. Cell, 2012, 151, 153-66).

[6] = test system: Flt3L-elicited CD11c+ dendritic cells; test: DC viability by live/dead staining and flow cytometry; format: cell-based, mouse; conditions: butyrate pretreatment 6 h

## CC(=O)O [acetate]
naïve CD4+ T cells [1]
  TGF-β-dependent generation of Foxp3+ cells in vitro: not
Flt3L-elicited DC
  ability of pre-treated DCs to induce Foxp3 expression in naïve CD4+ T cells: not
Foxp3+ Treg cells; AVNM-treated mice
  colonic Treg cells (accumulation of Treg cells in the colon): promoted accumulation
Foxp3+ Treg cells
  Treg cell subsets in the spleen: did not increase
GPR43
  accumulation of Treg cells in the colon by activating GPR43: promote accumulation

## CCCC(=O)O [butyrate]
naïve CD4+ T cells [2]
  increase in numbers of Foxp3+ cells in DC-free cultures: < 1.5 fold
Foxp3+ Treg cells; butyrate in drinking water, AVNM-treated mice
  non-lymphoid tissue histology: remained unchanged
[3]
  butyrate serum levels: comparable to those found in unperturbed SPF mice
[4]
  levels of butyrate in fecal pellets: not reconstituted
[5]; Foxp3+ cells
  increase in H3K27-Ac occupancy: ~30%
[5]; Foxp3− cells
  increase in H3K27-Ac at the Foxp3 promoter and CNS1 enhancer: 3 fold
[6]
  DC viability: no detrimental effect; also recorded: maintain

## CC(C)CC(=O)O [isovalerate]
naïve CD4+ T cells [1]
  TGF-β-dependent generation of Foxp3+ cells in vitro: augmented

## CCC(=O)O [propionate]
naïve CD4+ T cells [1]
  TGF-β-dependent generation of Foxp3+ cells in vitro: augmented
Flt3L-elicited DC
  ability of pre-treated DCs to induce Foxp3 expression in naïve CD4+ T cells: to a lesser extent
Foxp3+ Treg cells; AVNM-treated mice
  colonic Treg cells (accumulation of Treg cells in the colon): promoted accumulation
Foxp3+ Treg cells
  Treg cell subsets in the spleen: increased
GPR43
  accumulation of Treg cells in the colon by activating GPR43: promote accumulation
